{"source": "paper PMC5867622", "about": "“Microginins from a Microcystis sp. Bloom Material Collected from the Kishon Reservoir, Israel” (Marine Drugs, 2018)", "key": {"[1]": {"test_system": "APN", "conditions": "Table S1, cited from earlier work"}, "[2]": {"target": "T1, porcine kidney microsomal aminopeptidase M (Sus scrofa, UniProt P15145)", "T1 construct": "purchased Sigma-Aldrich (St. Louis, MO, USA); host or cells: porcine kidney microsomes", "T1 sequence (P15145 1-963)": "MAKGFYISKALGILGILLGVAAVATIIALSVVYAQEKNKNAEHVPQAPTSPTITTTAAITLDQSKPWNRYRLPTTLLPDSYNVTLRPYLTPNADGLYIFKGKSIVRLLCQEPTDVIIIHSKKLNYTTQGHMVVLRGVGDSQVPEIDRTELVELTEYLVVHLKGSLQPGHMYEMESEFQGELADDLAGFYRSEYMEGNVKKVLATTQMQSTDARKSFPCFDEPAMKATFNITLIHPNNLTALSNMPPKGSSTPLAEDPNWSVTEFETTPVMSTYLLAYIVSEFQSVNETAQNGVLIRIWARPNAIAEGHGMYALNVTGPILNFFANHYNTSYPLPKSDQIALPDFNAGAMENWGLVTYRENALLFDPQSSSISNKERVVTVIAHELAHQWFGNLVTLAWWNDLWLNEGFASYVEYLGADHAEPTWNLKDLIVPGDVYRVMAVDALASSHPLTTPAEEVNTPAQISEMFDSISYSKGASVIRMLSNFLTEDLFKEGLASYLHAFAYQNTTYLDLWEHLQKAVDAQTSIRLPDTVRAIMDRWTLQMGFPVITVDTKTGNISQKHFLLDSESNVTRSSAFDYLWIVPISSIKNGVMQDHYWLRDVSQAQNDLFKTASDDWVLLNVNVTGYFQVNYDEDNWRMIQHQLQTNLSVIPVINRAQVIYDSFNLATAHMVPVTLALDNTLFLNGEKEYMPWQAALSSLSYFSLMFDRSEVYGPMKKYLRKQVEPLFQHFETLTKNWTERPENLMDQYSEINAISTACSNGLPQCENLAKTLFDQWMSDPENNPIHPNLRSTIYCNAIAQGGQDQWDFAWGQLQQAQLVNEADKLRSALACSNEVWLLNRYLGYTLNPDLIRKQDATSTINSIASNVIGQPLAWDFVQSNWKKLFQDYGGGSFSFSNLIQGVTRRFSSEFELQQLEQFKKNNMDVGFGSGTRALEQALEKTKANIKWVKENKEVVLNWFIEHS", "test": "Aminopeptidase M inhibitory assay", "assay_type": "biochemical", "procedure": "Aminopeptidase M inhibitory activity was determined according to the procedure described by Ishida et al.. A reaction mixture composed of 20 μL of L-leucine-p-nitroanilide (2 mM in 0.1 M Tris-HCl buffer at pH 7.0), 50 μL of 0.1 M Tris-HCl buffer (pH 7.0) and 20 μL of test solution was added to each well of a 96-well microtiter plate. The plate was incubated at 37 °C for 5 min; thereafter, 10 μL of porcine kidney microsomal aminopeptidase M [EC Number 232-942-5, Sigma-Aldrich (St. Louis, MO, USA), […] in 3.5 M (NH4)2SO4] was added to each well, and the absorbance at 405 nm was measured for 30 min. The microginin samples were dissolved in DMSO at a concentration of 1 mg/mL, and the IC50 values were determined by analysis of a series of dilutions (from 45.5 μM to 0.00069 μM). A sigmoidal curve of the enzyme inhibition versus the concentration of the inhibitor was observed that was fit to a 4-parameter logistic model."}, "[3]": {"test_system": "mAPM", "parameters": "method as in earlier work", "conditions": "Table S1; ref 3 (Neumann et al., FEMS Microbiol. Lett. 1997); cited from earlier work"}, "[4]": {"test_system": "ACE", "conditions": "Table S1; ref 3 (Neumann et al., FEMS Microbiol. Lett. 1997); cited from earlier work"}, "[5]": {"test_system": "cAPM", "parameters": "method as in earlier work", "conditions": "Table S1; ref 3 (Neumann et al., FEMS Microbiol. Lett. 1997); cited from earlier work"}, "[6]": {"conditions": "Activity: APM, Table S1, source 14 = this manuscript"}, "[7]": {"conditions": "IC50 in μM ± SD, Table 4, substrate L-leucine-p-nitroanilide, Tris-HCl pH 7.0, 37 °C"}, "[8]": {"conditions": "read-out: Activity: APM, Table S1, source 14 = this manuscript"}, "[9]": {"conditions": "read-out: IC50 in μM ± SD, Table 4, substrate L-leucine-p-nitroanilide, Tris-HCl pH 7.0, 37 °C"}, "[10]": {"conditions": "Table 4, substrate L-leucine-p-nitroanilide, Tris-HCl pH 7.0, 37 °C, read-out: IC50 in μM ± SD"}, "[11]": {"conditions": "Table S1, source 14 = this manuscript, heading: Activity: APM, read-out: Activity: APM"}}, "note": "Where two headings read alike, the source gives them in different places. Square brackets hold non-standard residues; d marks the D form. Peptide text beside a SMILES is read from it. * marks the point of attachment. X13 = CN[C@H](CCCCCCC(Cl)Cl)[C@@H](O)C(=O)*; X4 = CN[C@H](CCCCCCCCl)[C@@H](O)C(=O)*; X7 = N[C@H](CCCCCCCCl)[C@@H](O)C(=O)*; NMeY = CN[C@@H](Cc1ccc(O)cc1)C(=O)O; X17 = CCCCC[C@H](N)[C@H](O)C(=O)*; NMeI = CC[CH](C)[CH](NC)C(=O)O; NMeL = CN[CH](CC(C)C)C(=O)O; X11 = CCCCCCCC(NC)C(O)C(=O)*; X5 = NC(CCCCCCCCl)C(O)C(=O)*; X16 = CCCCCC(NC)C(O)C(=O)*; X8 = CCCCCCCC(N)C(O)C(=O)*", "data": [{"compound": "CC(C)[C@@H](C(=O)N[C@@H](Cc1ccc(O)cc1)C(=O)O)N(C)C(=O)[C@H](C)NC(=O)[C@@H](O)[C@@H](N)CCCCCCCCl", "note": "[Microginin AL584]", "values": [{"measurement": "Activity: APN (ni)", "setting": "[1]; ref 10 (Gesner-Apter, Carmeli, Tetrahedron 2008)", "result": "ni"}]}, {"compound": "CCCCCCCC(N)C(O)C(=O)NC(C(=O)N1CCCC1C(=O)NC(Cc1ccc(O)cc1)C(=O)NC(Cc1ccc(O)cc1)C(=O)O)C(C)O", "note": "(stereo not shown) [Microginin FR3] (X8-TPYY-OH; configuration not given here)", "values": [{"measurement": "IC50", "setting": "[2]; [6]", "result": 0.0062, "unit": "µM"}, {"measurement": "IC50", "setting": "[2]; [7]", "result": "6.2 ± 0.03", "unit": "µM"}]}, {"compound": "CCCCCCCC(NC)C(O)C(=O)NC(C(=O)N1CCCC1C(=O)NC(Cc1ccc(O)cc1)C(=O)NC(Cc1ccc(O)cc1)C(=O)O)C(C)O", "note": "(stereo not shown) [Microginin FR4] (X11-TPYY-OH; configuration not given here)", "values": [{"measurement": "IC50", "setting": "[2]; [8]", "result": 0.0018, "unit": "µM"}, {"measurement": "IC50", "setting": "[2]; [9]", "result": "1.8 ± 0.04", "unit": "µM"}]}, {"compound": "CCC(C)C(C(=O)N1CCCC1C(=O)NC(Cc1ccc(O)cc1)C(=O)O)N(C)C(=O)C(Cc1ccc(O)cc1)NC(=O)C(O)C(N)CCCCCCCCl", "note": "(stereo not shown) [Microginin HG787] (X5-Y[NMeI]PY-OH; configuration not given here)", "values": [{"measurement": "IC50", "setting": "[1]; ref 11 (Lifshits et al., Tetrahedron 2011)", "result": 7700, "unit": "nM"}]}, {"compound": "CCCCCCC[C@@H](NC)[C@@H](O)C(=O)N[C@@H](Cc1ccc(O)cc1)C(=O)N(C)[C@@H](CC(C)C)C(=O)N1CCC[C@H]1C(=O)O", "note": "[Microginin KR604]", "values": [{"measurement": "IC50", "setting": "[2]; [10]", "result": "7.5 ± 0.1", "unit": "µM"}, {"measurement": "IC50", "setting": "[2]; [11]", "result": 7.5, "unit": "µM"}]}, {"compound": "CN[C@H](CCCCCCCCl)[C@@H](O)C(=O)N[C@@H](Cc1ccc(O)cc1)C(=O)N(C)[C@@H](CC(C)C)C(=O)N1CCC[C@H]1C(=O)O", "note": "[Microginin KR638]", "values": [{"measurement": "IC50", "setting": "[2]; [10]", "result": "3.8 ± 0.3", "unit": "µM"}, {"measurement": "IC50", "setting": "[2]; [11]", "result": 3.8, "unit": "µM"}]}, {"compound": "CCCCCCCC(NC)C(O)C(=O)NC(Cc1ccc(O)cc1)C(=O)N(C)C(CC(C)C)C(=O)N1CCCC1C(=O)NC(Cc1ccc(O)cc1)C(=O)O", "note": "(stereo not shown) [Microginin KR767] (X11-Y[NMeL]PY-OH; configuration not given here)", "values": [{"measurement": "IC50", "setting": "[2]; [8]", "result": 0.0005, "unit": "µM"}, {"measurement": "IC50", "setting": "[2]; [9]", "result": "0.5 ± 0.2", "unit": "µM"}]}, {"compound": "CC(C)C[C@@H](C(=O)N1CCC[C@H]1C(=O)N[C@@H](Cc1ccc(O)cc1)C(=O)O)N(C)C(=O)[C@H](Cc1ccc(O)cc1)NC(=O)[C@H](O)[C@H](N)CCCCCCCCl", "note": "[Microginin KR787] (X7-Y[NMeL]PY-OH)", "values": [{"measurement": "IC50", "setting": "[2]; [8]", "result": 0.0057, "unit": "µM"}, {"measurement": "IC50", "setting": "[2]; [9]", "result": "5.7 ± 0.1", "unit": "µM"}]}, {"compound": "CN[C@H](CCCCCCCCl)[C@@H](O)C(=O)N[C@@H](Cc1ccc(O)cc1)C(=O)N(C)[C@@H](CC(C)C)C(=O)N1CCC[C@H]1C(=O)N[C@@H](Cc1ccc(O)cc1)C(=O)O", "note": "[Microginin KR801] (X4-Y[NMeL]PY-OH)", "values": [{"measurement": "IC50", "setting": "[2]; [8]", "result": 0.0001, "unit": "µM"}, {"measurement": "IC50", "setting": "[2]; [9]", "result": "0.1 ± 0.2", "unit": "µM"}]}, {"compound": "CN[C@H](CCCCCCCCl)[C@@H](O)C(=O)N[C@@H](Cc1ccc(O)cc1)C(=O)N(C)[C@@H](CC(C)C)C(=O)N1CCC[C@H]1C(=O)N[C@@H](Cc1ccc(O)cc1)C(=O)OC", "note": "[Microginin KR815] (X4-Y[NMeL]PY-OMe)", "values": [{"measurement": "IC50", "setting": "[2]; [6]", "result": 0.072, "unit": "µM"}, {"measurement": "IC50", "setting": "[2]; [7]", "result": "72 ± 0.1", "unit": "µM"}]}, {"compound": "CN[C@H](CCCCCCC(Cl)Cl)[C@@H](O)C(=O)N[C@@H](Cc1ccc(O)cc1)C(=O)N(C)[C@@H](CC(C)C)C(=O)N1CCC[C@H]1C(=O)N[C@@H](Cc1ccc(O)cc1)C(=O)O", "note": "[Microginin KR835] (X13-Y[NMeL]PY-OH)", "values": [{"measurement": "IC50", "setting": "[2]; [8]", "result": 0.0004, "unit": "µM"}, {"measurement": "IC50", "setting": "[2]; [9]", "result": "0.4 ± 0.2", "unit": "µM"}]}, {"compound": "CCCCCC(NC)C(O)C(=O)N[C@H](C(=O)N(C)[C@H](C(=O)N(C)[C@@H](Cc1ccc(O)cc1)C(=O)N[C@@H](Cc1ccc(O)cc1)C(=O)O)[C@@H](C)CC)C(C)C", "note": "(stereo partly shown) [Microginin SD755] (X16-V[NMeI][NMeY]Y-OH)", "values": [{"measurement": "IC50", "setting": "[1]; ref 7 (Resef, Carmeli, Tetrahedron 2001)", "result": 18500, "unit": "nM"}]}, {"compound": "CCCCC[C@H](N)[C@H](O)C(=O)N[C@H](C(=O)N(C)[C@H](C(=O)N(C)[C@@H](Cc1ccc(O)cc1)C(=O)N[C@@H](Cc1ccc(O)cc1)C(=O)O)[C@@H](C)CC)C(C)C", "note": "[Nostoginin BN741] (X17-V[NMeI][NMeY]Y-OH)", "values": [{"measurement": "IC50", "setting": "[1]; ref 8 (Ploutno, Carmeli, Tetrahedron 2002)", "result": 1300, "unit": "nM"}]}, {"compound": "Microginin FR1", "values": [{"measurement": "IC50", "setting": "[3]", "result": 6, "unit": "nM"}, {"measurement": "IC50", "setting": "[4]", "result": 16000, "unit": "nM"}, {"measurement": "IC50", "setting": "[5]", "result": 1300, "unit": "nM"}]}]}
